# From patent US10000511B2, “Small molecules for the modulation of MCL-1 and methods of modulating cell death, cell division, cell differentiation and methods of treating disorders” (priority 2010, dated 2018)
# Biological target: BCL-XLΔC (Homo sapiens, UniProt Q07817)
# Assay: Competitive fluorescence polarization binding screen, FITC-BAD BH3/BCL-XLΔC
# Details: FITC-BAD BH3/BCL-XLΔC interaction
# BCL-XLΔC, sequence (Q07817 1-212 limits assumed, stated change not applied): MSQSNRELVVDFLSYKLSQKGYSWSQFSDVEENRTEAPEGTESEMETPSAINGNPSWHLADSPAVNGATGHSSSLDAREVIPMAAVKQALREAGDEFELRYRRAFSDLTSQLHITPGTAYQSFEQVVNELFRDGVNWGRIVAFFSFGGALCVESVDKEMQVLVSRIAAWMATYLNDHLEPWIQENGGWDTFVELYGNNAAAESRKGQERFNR
row,SMILES,BCL-XL % Bound
1,CCN(CC)c1cc(C)c2cc(NC(=O)/C=C/c3ccco3)ccc2n1,79.88%
2,COc1ccc(/C=c2\s/c(=C\C(=O)c3ccco3)[nH]c2=O)cc1O,263.7%
3,O=C(/C=C/c1ccc(Br)o1)OCC(=O)c1c[nH]c2ccccc12,105.6%
4,CCSC1=C(C#N)C(=O)NC(c2ccc(O)cc2)S1 (stereo not shown),84.82%

# Biological target: T1, MCL-1ΔNΔC (Homo sapiens, UniProt Q07820)
# Assay: Competitive fluorescence polarization binding screen, FITC-MCL-1 SAHB/MCL-1ΔNΔC
# Design: the C-terminal alpha-helix was deleted from each of these constructs to facilitate protein expression and purification; an additional N-terminal deletion of MCL-1 was performed; GST (N, cleaved yes); made in house
# Details: FITC-MCL-1 SAHB/MCL-1ΔNΔC interaction
# T1 sequence (Q07820 172-320 limits assumed, stated change not applied): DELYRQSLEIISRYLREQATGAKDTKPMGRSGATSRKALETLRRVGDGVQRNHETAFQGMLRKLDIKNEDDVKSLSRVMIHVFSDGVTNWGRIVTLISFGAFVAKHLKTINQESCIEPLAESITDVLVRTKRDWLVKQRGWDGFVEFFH
row,SMILES,MCL-1% Bound
1,CCN(CC)c1cc(C)c2cc(NC(=O)/C=C/c3ccco3)ccc2n1,11.73%
2,Cc1ccc(/C=C2\C(=O)Nc3ccc(Br)cc32)o1 [drawing 54],18.74%
3,Cc1ccc2c(c1C)NC(C(=O)O)C1CC=CC21 (stereo not shown),14.5%

# System: MCL-1ΔNΔC
# Assay: as above
# Details: selectivity for MCL-1ΔNΔC over BCL-XLΔC (BCL-XL % Bound minus MCL-1 % Bound)
row,SMILES,Spec Values
1,O=c1c(O)c(-c2ccc(O)c(O)c2)oc2cc(O)cc(O)c12,88.65
2,Cc1cc(NC(=O)/C=C/c2ccco2)n(-c2nc3ccccc3n2Cc2cccc(Oc3ccccc3)c2)n1,48.1
3,CCSC1=C(C#N)C(=O)NC(c2ccc(N(C)C)cc2)S1 (stereo not shown),49.2!
4,Oc1cccnc1NC(c1ccc(F)cc1)c1ccc2cccnc2c1O (stereo not shown),71.24
5,O=C(/C=C/c1ccco1)NC(=S)Nc1ccccc1C(F)(F)F,52.25
6,C/C(=N\OCc1ccc(C(=O)N2CCCCC2)o1)c1cccc(C(F)(F)F)c1,55.34
7,CN1CCN(C(c2ccccn2)c2c(-c3ccccc3)n(O)c3ccccc23)CC1 (stereo not shown),49.28
8,Cc1ccc(/C=C2\C(=O)Nc3ccc(Br)cc32)o1 [drawing 54],58.85
9,Cc1ccc(C)n1-c1cc(Cl)ccc1C(=O)O,79.84
10,COc1cc(C(c2nnnn2C2CCCCC2)N2CCc3ccccc3C2)ccc1O (stereo not shown),48.33
11,COc1ccc(-c2nc3scc(CCNC(=O)/C=C/c4ccco4)n3n2)cc1,46.24
12,CC1CCN(C2=NN3C(=N)/C(=C\c4ccc(SCc5ccco5)o4)C(=O)N=C3S2)CC1,70.38
13,O=C(CCN1C(=O)/C(=C\C=C\c2ccco2)SC1=S)Nc1ccc(C(=O)O)c(O)c1,54.54
14,Cc1ccc(/C=C2\C(=O)Nc3ccc(Br)cc32)o1 [drawing 279],58.85
15,O=C(/C=C/c1ccc(Br)o1)OCC(=O)c1c[nH]c2ccccc12,52.14
16,Cc1c(Cl)cccc1N1C(=O)CC(N2CCCc3ccccc32)C1=O (stereo not shown),48.92

# Biological target: T1, MCL-1ΔNΔC
# Assay: not given
# Details: pre-incubation, dilution, re-concentration, FITC-BID BH3 FP
row,SMILES,mode of binding to MCL-1ΔNΔC (reversible/non-covalent vs covalent)
1,Cc1cc2c(C(C)C)c(O)c(O)c(C=O)c2c(O)c1-c1c(C)cc2c(C(C)C)c(O)c(O)c(C=O)c2c1O [Gossypol],bound reversibly

# Same assay, conditions: pre-incubation, dilution, re-concentration, FITC-BID BH3 FP; listed as 1570G15
row,SMILES,mode of binding to MCL-1ΔNΔC (reversible/non-covalent vs covalent)
1,Cc1cc2c(C(C)C)c(O)c(O)c(C=O)c2c(O)c1-c1c(C)cc2c(C(C)C)c(O)c(O)c(C=O)c2c1O [Gossypol],engages MCL-1 through non-covalent interactions
